The results in this text go back to US20250281478A1, “METHODS FOR PREVENTING OR TREATING KIDNEY DISEASES” (JEAMOON BEIJING CO., LTD., priority 2022, published 2025).

Common to all, as to type: in vivo, C57BL/6N mice
For experiment [1], the system named is mice with adenine-induced renal failure. Put plainly: Serum creatinine (CREA) in adenine-induced renal failure mice. Here is the method:
(§1) • a) Control group: Fed with adenine-free feed; other procedures were the same as those in the model group. • b) Model group: Fed with feed containing 0.25% adenine for modelling. • c) LY-10 mg/kg group: Model+LY2922470 (10 mg/kg, p.o., QD). • d) LY-30 mg/kg group: Model+LY2922470 (30 mg/kg, p.o., QD). • e) LY-60 mg/kg group: Model+LY2922470 (60 mg/kg, p.o., QD). • f) TAK875 group: Model+TAK875 (30 mg/kg, p.o., QD).
(§2) Except for the control group, all other mice were fed with a diet containing 0.25% adenine for modelling. The control group was fed with a normal diet. All mice were allowed free access to food. One week after modeling, each group of mice was administered the respective treatment via oral gavage once daily in the afternoon for two consecutive weeks. The control group and the model group received vehicle under a same condition. The adenine-containing diet was continuously administered for modeling throughout the treatment period until the end of the experiment. The physical condition of the mice was monitored, and body weight was measured and recorded weekly. Blood samples were collected from the orbital venous plexus at 1 week (post-modeling) and 3 weeks (after 2 weeks of treatment). Serum was separated for the measurement of serum creatinine (CRE) and blood urea nitrogen (BUN). At the end of the two-week treatment, renal function of each group was assessed using a TGFR renal function monitoring and smart analysis system. After testing, tissues were collected from the mice to confirm the efficacy of the treatment.
(§3) Statistical analyses were performed using GraphPad Prism 8.0 software. Continuous data of each group were expressed as mean+SD. One-way ANOVA was used for multi-group comparisons, and Student's t-test was used for comparisons between two groups. A p-value<0.05 was considered statistically significant. For categorical data, chi-square tests were used to compare between groups, with p<0.05 indicating a statistically significant difference.
(§4) Mice were fed a 0.25% adenine-containing diet. After one week, the mice were treated with LY2922470 or TAK875. During the treatment period, the adenine-containing diet was continued for modeling. After three weeks of adenine feeding (i.e., two weeks of drug administration), blood samples were collected from the mice, and serum was isolated for CREA and BUN measurements.

Experiment [2] shares this test system. The experiment is described as follows: Blood urea nitrogen (BUN) in adenine-induced renal failure mice. The procedure:
as §1, §2, §3, §4

In experiment [3] the test system is mice with sustained adenine-induced renal failure. Put plainly: Glomerular filtration rate in mice with sustained adenine-induced renal failure (TGFR system). The settings on record: TAK875 30 mg/kg p.o. QD for 2 weeks; 3 weeks continuous 0.25% adenine diet; FIG. 4. The procedure: as §1, §2, §3
One week later, LY2922470 or TAK875 was administrated for treatment. […]

Experiment [4] deals with mice with adenine-induced renal failure. The experiment is described as follows: Survival of mice with adenine-induced renal failure. Particulars: TAK875 30 mg/kg p.o. QD. The procedure: • 1. Experimental Animals: C57BL/6N, 8 weeks old, SPF grade, male. • 2. Experimental Drugs: • LY2922470 (Shanghai Taoshu Biotechnology Co., Ltd.) • TAK875 (Shanghai Taoshu Biotechnology Co., Ltd.)
1) Preparation of TAK875: A total of 27 mg of TAK875 powder was accurately weighed using an analytical balance and dissolved in 9 mL of 0.8% CMC-Na solution. The mixture was sonicated for 5 minutes to form a 3 mg/mL white suspension. The suspension was stored at 4° C. for later use.
2) Preparation of LY2922470: A total of 80 mg of LY2922470 yellow crystals was added to 200 μL of DMSO to form a clear yellow solution. The solution was gradually added in batches to 10 mL of 0.8% CMC-Na solution. After heating and sonication for 5 hours, an 8 mg/mL white suspension of LY2922470 was obtained. The suspension was stored at 4° C. for later use.
Eight-week-old male C57BL/6N mice were acclimatized for one week and then randomly divided into six groups. Except for the control group, all mice were fed a 0.25% adenine-containing diet for modelling. The control group received a normal diet. The mice had free access to food. One week after model induction, mice in each group were orally administered the corresponding drug once daily in the afternoon, according to their group assignment. The control group and the model group received vehicle under a same condition. During the treatment period, the adenine-containing diet was continued. Mouse survival was monitored until the end of the experiment.

Experiment [5] shares this test system. The experiment is described as follows: Renal fibrosis by Masson's trichrome staining in adenine-induced renal failure mice. The settings on record: TAK875 30 mg/kg p.o. QD for 2 weeks; 3 weeks of modeling; FIG. 6. Here is the method: Mice were modeled and administered drugs as described in Example 3. After two weeks of drug administration, the mice were euthanized, and their kidneys were fixed, sectioned, stained with Masson's trichrome, and analyzed.
Whole-slide scanning was performed using a fully automated digital pathology scanner KF-PRO-120 from Ningbo Jiangfeng Bioinformatics Technology Co., Ltd. Masson-stained images were analyzed using the Area Quantification module in HALO software. The blue staining of collagen fibers was used as the unified criterion for positivity. The images were analyzed, and the percentage of blue-stained collagen fibers in the tissue was calculated.
Statistical analysis was conducted using GraphPad Prism 8.0. Continuous data for each group were expressed as mean+SD. One-way ANOVA was used for multi-group comparisons, and Student's t-test was used for comparisons between two groups. A p-value<0.05 was considered statistically significant. For categorical data, chi-square tests were used for comparisons among groups, and a p-value<0.05 was considered statistically significant.

Setting [6] is: TAK875 30 mg/kg p.o. QD for 2 weeks.
Where [7] appears, read: TAK875 30 mg/kg p.o. QD, mean ± SD.

For `Cc1cc(OCCCS(C)(=O)=O)cc(C)c1-c1cccc(COc2ccc3c(c2)OC[C@H]3CC(=O)O)c1` [TAK875], in experiment [1] (setting [6]), the “CREA level compared with the model group” value was “did not significantly reduce”. Further, in experiment [1] (setting [7]), the “CREA after modeling for 3 weeks (after drug administration for 2 weeks)” value was 137.68 ± 30.23 µmol/L. The “BUN level compared with the model group” value in experiment [2] (setting [6]) is on record as “did not significantly reduce”. Besides, in experiment [2] (setting [7]), the “BUN after modeling for 3 weeks (after drug administration for 2 weeks)” value is on record as 25.07 ± 4.91 mmol/L. The “BUN after modeling for 1 week (before drug administration)” value in experiment [2] (baseline of the TAK875 30 mg/kg group, mean ± SD) was found to be 11.25 ± 3.98 mmol/L. Moreover, the “GFR compared with the model group” value in experiment [3] is “increased”. Also, the “Survival Rate (%)” value in experiment [4] (started 1 week after start of continued 0.25% adenine diet, end of experiment, 30 mg/kg) was 46.2%. Besides, the “Count after Drug Administration (surviving mice)” value in experiment [4] (13 at enrollment) came out at 6. In addition, the “Degree of renal fibrosis compared to the model group (Masson staining)” value in experiment [5] is reported as “not significantly reduced”.
